Drawing on ChEMBL document CHEMBL5223135, “Guanidine-based β amyloid precursor protein cleavage enzyme 1 (BACE-1) inhibitors for the Alzheimer's disease (AD): A review” (Bioorg Med Chem, 2022), this text covers Papp, logS0 and logP for 4 molecules.

The nature of series [1]: Permeability in human Caco-2 cells. Particulars: read-out: permeability. The format is ADME, cell-based.
Series [2] can be described thus: Aqueous solubility, logS of the compound. The series is classed as physicochemical. The note with it: buffer.
The nature of series [3]: n-Octanol/water partition coefficient, logP of the compound. The format is physicochemical.

The structures appear in SMILES notation.

Regarding `O=[N+]([O-])c1ccc(-n2cc(COc3ccc(/C=N/Nc4nnc(-c5ccccc5)c(-c5ccccc5)n4)cc3)nn2)cc1`, the Papp in series [1] was 0.53 ×10⁻⁶ cm/s.

For `Cn1c(N/N=C/c2cccc(Cl)c2Cl)nc2ccccc2c1=O`, the Papp in series [1] was found to be 0.57 ×10⁻⁶ cm/s.

For the molecule `N=C(Nc1cnc(F)c(F)c1)Nc1cnc(F)c(F)c1`, the logS0 in series [2] is -2.73. In addition, the logP in series [3] worked out at 1.76.

Regarding `C(=N\Nc1nnc(-c2cccs2)c(-c2cccs2)n1)/c1cc2ccccc2[nH]1`, the Papp in series [1] turned out to be 0.53 ×10⁻⁶ cm/s.

In general, logP refers to a log measure of how a compound divides between an organic and an aqueous phase. The low end stands for lower lipophilicity, the high end for higher lipophilicity.
